Laboratory results reported in PubChem BioAssay (NCI).
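Cells were grown in 96-well plates and exposed to each compound for 48 hours at five concentrations; endpoints were interpolated linearly between bracketing concentrations, or set to the highest concentration if not reached. Here, GI50 denotes the concentration required for 50% inhibition of growth. TGI: total growth inhibition.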

How the values were obtained:
Assay in all cases: growth of human tumour cells (NCI), 48 h
SF-539 CNS = system: SF-539 CNS
HL-60(TB) leukemia = system: HL-60(TB) leukemia
NCI-H460 lung = system: NCI-H460 lung
HCC-2998 colon = system: HCC-2998 colon
SN12C renal = system: SN12C renal
SF-268 CNS = system: SF-268 CNS
A549 NSCLC = system: A549 NSCLC
OVCAR-8 ovarian = system: OVCAR-8 ovarian
SK-MEL-28 melanoma = system: SK-MEL-28 melanoma
MCF7 breast = system: MCF7 breast
NCI-H226 lung = system: NCI-H226 lung
EKVX NSCLC = system: EKVX NSCLC
KM12 colon = system: KM12 colon
HOP-62 NSCLC = system: HOP-62 NSCLC
SF-295 CNS = system: SF-295 CNS
SW-620 colon = system: SW-620 colon
MDA-MB-468 breast = system: MDA-MB-468 breast
SK-OV-3 ovarian = system: SK-OV-3 ovarian
SK-MEL-5 melanoma = system: SK-MEL-5 melanoma
IGROV1 ovarian = system: IGROV1 ovarian
786-0 renal = system: 786-0 renal
UO-31 renal = system: UO-31 renal
SNB-19 CNS = system: SNB-19 CNS
HS 578T breast = system: HS 578T breast
SNB-75 CNS = system: SNB-75 CNS
OVCAR-3 ovarian = system: OVCAR-3 ovarian
SR leukemia = system: SR leukemia
CCRF-CEM leukemia = system: CCRF-CEM leukemia
HT29 colon = system: HT29 colon

**Q.** For O=C(/C=C/c1cccc(OCc2ccc(F)cc2)c1)c1nc2ccccc2[nH]1, which GI50 (SF-539 CNS) is on record?
**A.** Its GI50 is 17.6 µM.

**Q.** And the TGI (SF-539 CNS)?
**A.** Its TGI is 32.2 µM.

**Q.** What about the GI50 (HL-60(TB) leukemia) of the same compound?
**A.** Its GI50 is 19.5 µM.

**Q.** What about the TGI (HL-60(TB) leukemia) of the same compound?
**A.** Its TGI is 62.4 µM.

**Q.** And the GI50 (NCI-H460 lung)?
**A.** The GI50 was 34.8 µM.

**Q.** And the TGI (NCI-H460 lung)?
**A.** The TGI was > 100 µM.

**Q.** What about the GI50 (HCC-2998 colon) of the same compound?
**A.** The GI50 was 15.5 µM.

**Q.** What about the TGI (HCC-2998 colon) of the same compound?
**A.** Its TGI is 30 µM.

**Q.** And the GI50 (SN12C renal)?
**A.** The GI50 was 62.9 µM.

**Q.** What about the TGI (SN12C renal) of the same compound?
**A.** Its TGI is > 100 µM.

**Q.** What about the GI50 (SF-268 CNS) of the same compound?
**A.** Its GI50 is 37.7 µM.

**Q.** What about the TGI (SF-268 CNS) of the same compound?
**A.** The TGI was > 100 µM.

**Q.** What about the GI50 (A549 NSCLC) of the same compound?
**A.** Its GI50 is 65.1 µM.

**Q.** And the TGI (A549 NSCLC)?
**A.** The TGI was > 100 µM.

**Q.** And the GI50 (OVCAR-8 ovarian)?
**A.** Its GI50 is 34.4 µM.

**Q.** And the TGI (OVCAR-8 ovarian)?
**A.** Its TGI is > 100 µM.

**Q.** And the GI50 (SK-MEL-28 melanoma)?
**A.** Its GI50 is 21.9 µM.

**Q.** And the TGI (SK-MEL-28 melanoma)?
**A.** Its TGI is 61.2 µM.

**Q.** And the GI50 (MCF7 breast)?
**A.** Its GI50 is 4.52 µM.

**Q.** What about the TGI (MCF7 breast) of the same compound?
**A.** The TGI was 32.5 µM.

**Q.** And the GI50 (NCI-H226 lung)?
**A.** Its GI50 is 51 µM.

**Q.** What about the TGI (NCI-H226 lung) of the same compound?
**A.** The TGI was > 100 µM.

**Q.** And the GI50 (EKVX NSCLC)?
**A.** The GI50 was 41.3 µM.

**Q.** And the TGI (EKVX NSCLC)?
**A.** Its TGI is > 100 µM.

**Q.** What about the GI50 (KM12 colon) of the same compound?
**A.** Its GI50 is 13.5 µM.

**Q.** What about the TGI (KM12 colon) of the same compound?
**A.** The TGI was 65.9 µM.

**Q.** What about the GI50 (HOP-62 NSCLC) of the same compound?
**A.** Its GI50 is 41.5 µM.

**Q.** And the TGI (HOP-62 NSCLC)?
**A.** The TGI was > 100 µM.

**Q.** And the GI50 (SF-295 CNS)?
**A.** Its GI50 is 32.7 µM.

**Q.** And the TGI (SF-295 CNS)?
**A.** The TGI was > 100 µM.

**Q.** What about the GI50 (SW-620 colon) of the same compound?
**A.** Its GI50 is 12.2 µM.

**Q.** And the TGI (SW-620 colon)?
**A.** The TGI was 34.3 µM.

**Q.** And the GI50 (MDA-MB-468 breast)?
**A.** Its GI50 is 15 µM.

**Q.** What about the TGI (MDA-MB-468 breast) of the same compound?
**A.** Its TGI is 32.3 µM.

**Q.** What about the GI50 (SK-OV-3 ovarian) of the same compound?
**A.** The GI50 was > 100 µM.

**Q.** And the TGI (SK-OV-3 ovarian)?
**A.** Its TGI is > 100 µM.

**Q.** And the GI50 (SK-MEL-5 melanoma)?
**A.** The GI50 was 31.7 µM.

**Q.** What about the TGI (SK-MEL-5 melanoma) of the same compound?
**A.** The TGI was > 100 µM.

**Q.** And the GI50 (IGROV1 ovarian)?
**A.** The GI50 was 21.9 µM.

**Q.** What about the TGI (IGROV1 ovarian) of the same compound?
**A.** Its TGI is 66.6 µM.

**Q.** And the GI50 (786-0 renal)?
**A.** Its GI50 is 18.5 µM.

**Q.** And the TGI (786-0 renal)?
**A.** The TGI was 45.9 µM.

**Q.** What about the GI50 (UO-31 renal) of the same compound?
**A.** The GI50 was 13.4 µM.

**Q.** What about the TGI (UO-31 renal) of the same compound?
**A.** Its TGI is 29 µM.

**Q.** And the GI50 (SNB-19 CNS)?
**A.** The GI50 was 25.3 µM.

**Q.** And the TGI (SNB-19 CNS)?
**A.** Its TGI is > 100 µM.

**Q.** What about the GI50 (HS 578T breast) of the same compound?
**A.** The GI50 was 25.9 µM.

**Q.** And the TGI (HS 578T breast)?
**A.** Its TGI is 95.7 µM.

**Q.** And the GI50 (SNB-75 CNS)?
**A.** The GI50 was 34.2 µM.

**Q.** What about the TGI (SNB-75 CNS) of the same compound?
**A.** The TGI was > 100 µM.

**Q.** What about the GI50 (OVCAR-3 ovarian) of the same compound?
**A.** Its GI50 is 13.4 µM.

**Q.** And the TGI (OVCAR-3 ovarian)?
**A.** Its TGI is 37.6 µM.

**Q.** And the GI50 (SR leukemia)?
**A.** Its GI50 is 4.68 µM.

**Q.** What about the TGI (SR leukemia) of the same compound?
**A.** Its TGI is > 100 µM.

**Q.** And the GI50 (CCRF-CEM leukemia)?
**A.** The GI50 was 10.9 µM.

**Q.** What about the TGI (CCRF-CEM leukemia) of the same compound?
**A.** Its TGI is > 100 µM.

**Q.** What about the GI50 (HT29 colon) of the same compound?
**A.** The GI50 was 18.4 µM.

**Q.** And the TGI (HT29 colon)?
**A.** Its TGI is 40.1 µM.
